Test results reported in US7595401B2, “Therapeutic compounds and their use in cancer” (Myriad Pharmaceuticals, Inc., priority 2006, dated 2009).

system: purified human Hsp90; assay: Binding Assay: fluorescence polarization with BODIPY-labeled geldanamycin; details: 5 μM compound, BODIPY-GM 10 nM, Hsp90 30 nM
In short: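 Fluorescence polarization competition with BODIPY-geldanamycin (10 nM final) and human Hsp90 (30 nM final) in HEPES-KOH pH 7.3 buffer with molybdate, NP-40, DTT; 2% DMSO, overnight at room temperature. Read 485/530 nm; percent inhibition from mP normalized to DMSO controls, fluorescent-compound points excluded.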

% Inhibition at 5 μM Compound Concentration	SMILES
0%	CC(C)(C)OC(=O)NC(CCn1cnc(N)c2nc(Sc3cc4c(cc3Br)OCO4)nc1-2)C1CCC1 (stereo not drawn) [Example 673, tert-Butyl(3-{6-amino-8-[(6-bromo-1,3-benzodioxol-5-yl)thio]-3H-purin-3-yl}-1-cyclobutylpropyl)carbamate]
49%	CS(=O)(=O)NC(CCn1cnc(N)c2nc(Sc3cc4c(cc3Br)OCO4)nc1-2)C1CC1 (stereo not drawn) [Example 675, N-(3-{6-Amino-8-[(6-bromo-1,3-benzodioxol-5-yl)thio]-3H-purin-3-yl}-1-cyclopropylpropyl)methanesulfonamide]
14%	CC(C)(C)OC(=O)NC(CCn1cnc(N)c2nc(Sc3cc4c(cc3Br)OCO4)nc1-2)C1CCCC1 (stereo not drawn) [Example 680, {3-[6-Amino-8-(6-bromo-benzo[1,3]dioxol-5-ylsulfanyl)-purin-3-yl]-1-cyclopentyl-propyl}-carbamic acid tert-butyl ester]
5%	CC(C)(C)OC(=O)NC(CCn1cnc(N)c2nc(Sc3cc4c(cc3Br)OCO4)nc1-2)C1CCOCC1 (stereo not drawn) [Example 683, [3-[6-Amino-8-(6-bromo-benzo[1,3]dioxol-5-ylsulfanyl)-9H-purin-3-yl]-1-(tetrahydro-pyran-4-yl)-propyl]-carbamic acid tert-butyl ester]
30%	Nc1ncn(CCC(N)C2CC2)c2nc(Sc3cc4c(cc3Br)OCO4)nc1-2 (stereo not drawn) [Example 688, 3-(3-Amino-3-cyclopropylpropyl)-8-[(6-bromo-1,3-benzodioxol-5-yl)thio]-3H-purin-6-amine]

The next lines start with the compound.

SMILES	% Inhibition at 5 μM Compound Concentration
CC(=O)N1CCC(CCn2cnc(N)c3nc(Sc4nc5ccc([N+](=O)[O-])cc5s4)nc2-3)CC1 [Example 652, 3-[2-(1-Acetylpiperidin-4-yl)ethyl]-8-[(6-nitro-1,3-benzothiazol-2-yl)thio]-3H-purin-6-amine]	0.00%
CC(C)(C)OC(=O)NC(CCn1cnc(N)c2nc(Sc3cc4c(cc3Br)OCO4)nc1-2)C1CC1 (stereo not drawn) [Example 663, tert-butyl (3-{6-amino-8-[(6-bromo-1,3-benzodioxol-5-yl)thio]-3H-purin-3-yl}-1-cyclopropylpropyl)carbamate]	15%
COc1ccc(OC)c(Sc2nc3c(N)ncn(CCC(NC(=O)OC(C)(C)C)C4CC4)c-3n2)c1 (stereo not drawn) [Example 665, tert-Butyl(3-{6-amino-8-[(2,5-dimethoxyphenyl)thio]-3H-purin-3-yl}-1-cyclopropylpropyl)carbamate]	0%
COc1ccc(OC)c(Sc2nc3c(N)ncn(CCC(NC(=O)OC(C)(C)C)C4CCSCC4)c-3n2)c1 (stereo not drawn) [Example 669, tert-Butyl[3-{6-amino-8-[(2,5-dimethoxyphenyl)thio]-3H-purin-3-yl}-1-(tetrahydro-2H-thiopyran-4-yl)propyl]carbamate]	10%

same assay, conditions: BODIPY-GM 10 nM, Hsp90 30 nM

IC50	SMILES
80 nM	CS(=O)(=O)NC(CCn1c(Sc2cc3c(cc2Br)OCO3)nc2c(N)ncnc21)C1CC1 (stereo not drawn) [Example 674, N-(3-{6-Amino-8-[(6-bromo-1,3-benzodioxol-5-yl)thio]-9H-purin-9-yl}-1-cyclopropylpropyl)methanesulfonamide]
950 nM	COc1ccc(OC)c(Sc2nc3c(N)ncnc3n2CCC(NS(C)(=O)=O)C2CC2)c1 (stereo not drawn) [Example 676, N-(3-{6-Amino-8-[(2,5-dimethoxyphenyl)thio]-9H-purin-9-yl}-1-cyclopropylpropyl)methanesulfonamide]
1000 nM	CC(C)(C)OC(=O)NC(CCn1c(Sc2cc3c(cc2Br)OCO3)nc2c(N)ncnc21)C1CCCC1 (stereo not drawn) [Example 681, {3-[6-Amino-8-(6-bromo-benzo[1,3]dioxol-5-ylsulfanyl)-purin-9-yl]-1-cyclopentyl-propyl}-carbamic acid tert-butyl ester]
190 nM	CC(C)(C)OC(=O)NC(CCn1c(Sc2cc3c(cc2Br)OCO3)nc2c(N)ncnc21)C1CCOCC1 (stereo not drawn) [Example 682, [3-[6-Amino-8-(6-bromo-benzo[1,3]dioxol-5-ylsulfanyl)-purin-9-yl]-1-(tetrahydro-pyran-4-yl)-propyl]-carbamic acid tert-butyl ester]
80 nM	Nc1ncnc2c1nc(Sc1cc3c(cc1Br)OCO3)n2CCC(N)C1CC1 (stereo not drawn) [Example 687, 9-(3-Amino-3-cyclopropylpropyl)-8-[(6-bromo-1,3-benzodioxol-5-yl)thio]-9H-purin-6-amine]
120 nM	Nc1ncnc2c1nc(Sc1cc3c(cc1Br)OCO3)n2CCC(N)C1CCSCC1 (stereo not drawn) [Example 689, 9-[3-Amino-3-(tetrahydro-2H-thiopyran-4-yl)propyl]-8-[(6-bromo-1,3-benzodioxol-5-yl)thio]-9H-purin-6-amine]
290 nM	Nc1ncnc2c1nc(Sc1cc3c(cc1Br)OCO3)n2CCC(N)C1CCCCC1 (stereo not drawn) [Example 690, 9-(3-Amino-3-cyclohexylpropyl)-8-[(6-bromo-1,3-benzodioxol-5-yl)thio]-9H-purin-6-amine]
125 nM	Nc1ncnc2c1nc(Sc1cc3c(cc1Br)OCO3)n2CCC(N)C1CCCC1 (stereo not drawn) [Example 691, 9-(3-Amino-3-cyclopentyl-propyl)-8-(6-bromo-benzo[1,3]dioxol-5-ylsulfanyl)-9H-purin-6-ylamine]
2000 nM	Nc1ncnc2c1nc(Sc1cc3c(cc1Br)OCO3)n2CCC(N)C1CCOCC1 (stereo not drawn) [Example 692, 9-[3-Amino-3-(tetrahydro-pyran-4-yl)-propyl]-8-(6-bromo-benzo[1,3]dioxol-5-ylsulfanyl)-9H-purin-6-ylamine]

The remaining lines, values behind:

SMILES	IC50
CC(=O)N1CCC(CCn2c(Sc3nc4c(Cl)cccc4s3)nc3c(N)ncnc32)CC1 [Example 653, 9-[2-(1-Acetylpiperidin-4-yl)ethyl]-8-[(4-chloro-1,3-benzothiazol-2-yl)thio]-9H-purin-6-amine]	> 2000 nM
CC(=O)N1CCC(CCn2c(Sc3nc(C)c(C)s3)nc3c(N)ncnc32)CC1 [Example 654, 9-[2-(1-Acetylpiperidin-4-yl)ethyl]-8-[(4,5-dimethyl-1,3-thiazol-2-yl)thio]-9H-purin-6-amine]	2000 nM
CC(=O)N1CCC(CCn2c(Sc3nc4ccc(F)cc4s3)nc3c(N)ncnc32)CC1 [Example 655, 9-[2-(1-Acetylpiperidin-4-yl)ethyl]-8-[(6-fluoro-1,3-benzothiazol-2-yl)thio]-9H-purin-6-amine]	> 5000 nM
CC(=O)N1CCC(CCn2c(Sc3nc4cc(Cl)ccc4s3)nc3c(N)ncnc32)CC1 [Example 656, 9-[2-(1-Acetylpiperidin-4-yl)ethyl]-8-[(5-chloro-1,3-benzothiazol-2-yl)thio]-9H-purin-6-amine]	> 5000 nM
CC(=O)N1CCC(CCn2c(Sc3nc4cccc(Cl)c4s3)nc3c(N)ncnc32)CC1 [Example 657, 9-[2-(1-Acetylpiperidin-4-yl)ethyl]-8-[(7-chloro-1,3-benzothiazol-2-yl)thio]-9H-purin-6-amine]	190 nM
COc1ccc2sc(Sc3nc4c(N)ncnc4n3CCC3CCN(C(C)=O)CC3)nc2c1 [Example 658, 9-[2-(1-Acetylpiperidin-4-yl)ethyl]-8-[(5-methoxy-1,3-benzothiazol-2-yl)thio]-9H-purin-6-amine]	> 5000 nM
CC(=O)N1CCC(CCn2c(Sc3nc4ccccc4s3)nc3c(N)ncnc32)CC1 [Example 659, 9-[2-(1-Acetylpiperidin-4-yl)ethyl]-8-(1,3-benzothiazol-2-ylthio)-9H-purin-6-amine]	4000 nM
CC(=O)N1CCC(CCn2c(Sc3nc(C)c(CC(N)=O)s3)nc3c(N)ncnc32)CC1 [Example 660, 2-[2-({9-[2-(1-Acetylpiperidin-4-yl)ethyl]-6-amino-9H-purin-8-yl}thio)-4-methyl-1,3-thiazol-5-yl]acetamide]	> 5000 nM
Nc1ncnc2c1nc(Sc1nc3cccc(Cl)c3s1)n2CCC1CCN(C=O)CC1 [Example 661, 4-(2-{6-Amino-8-[(7-chloro-1,3-benzothiazol-2-yl)thio]-9H-purin-9yl}-ethyl)-piperidin-1-carbaldehyde]	60 nM
CC(C)(C)OC(=O)NC(CCn1c(Sc2cc3c(cc2Br)OCO3)nc2c(N)ncnc21)C1CC1 (stereo not drawn) [Example 662, tert-Butyl (3-{6-amino-8-[(6-bromo-1,3-benzodioxol-5-yl)thio]-9H-purin-9-yl}-1-cyclopropylpropyl)carbamate]	300 nM
CC(C)(C)OC(=O)NC(CCn1c(Sc2cc3c(cc2Br)OCO3)nc2c(N)ncnc21)C1CCSCC1 (stereo not drawn) [Example 666, tert-Butyl[3-{6-amino-8-[(6-bromo-1,3-benzodioxol-5-yl)thio]-9H-purin-9-yl}-1-(tetrahydro-2H-thiopyran-4-yl)propyl]carbamate]	800 nM
COc1ccc(OC)c(Sc2nc3c(N)ncnc3n2CCC(NC(=O)OC(C)(C)C)C2CCSCC2)c1 (stereo not drawn) [Example 668, tert-Butyl[3-{6-amino-8-[(2,5-dimethoxyphenyl)thio]-9H-purin-9-yl}-1-(tetrahydro-2H-thiopyran-4-yl)propyl]carbamate]	4800 nM
CC(C)(C)OC(=O)NC(CCn1c(Sc2cc3c(cc2Br)OCO3)nc2c(N)ncnc21)C1CCCCC1 (stereo not drawn) [Example 670, tert-Butyl(3-{6-amino-8-[(6-bromo-1,3-benzodioxol-5-yl)thio]-9H-purin-9-yl}-1-cyclohexylpropyl)carbamate]	1600 nM
CC(C)(C)OC(=O)NC(CCn1cnc(N)c2nc(Sc3cc4c(cc3Br)OCO4)nc1-2)C1CCCCC1 (stereo not drawn) [Example 671, tert-Butyl(3-{6-amino-8-[(6-bromo-1,3-benzodioxol-5-yl)thio]-3H-purin-3-yl}-1-cyclohexylpropyl)carbamate]	1000 nM
CC(C)(C)OC(=O)NC(CCn1c(Sc2cc3c(cc2Br)OCO3)nc2c(N)ncnc21)C1CCC1 (stereo not drawn) [Example 672, tert-Butyl(3-{6-amino-8-[(6-bromo-1,3-benzodioxol-5-yl)thio]-9H-purin-9-yl}-1-cyclobutylpropyl)carbamate]	900 nM
